This is an account of results in patent US7348336B2 (Sanofi-Aventis Deutschland GmbH, priority 2000, dated 2008).

What is called IC50 is the midpoint of a concentration-inhibition curve.

Structures can show the parent of a compound that is named as a salt.

T1 sequence (O14920 whole entry): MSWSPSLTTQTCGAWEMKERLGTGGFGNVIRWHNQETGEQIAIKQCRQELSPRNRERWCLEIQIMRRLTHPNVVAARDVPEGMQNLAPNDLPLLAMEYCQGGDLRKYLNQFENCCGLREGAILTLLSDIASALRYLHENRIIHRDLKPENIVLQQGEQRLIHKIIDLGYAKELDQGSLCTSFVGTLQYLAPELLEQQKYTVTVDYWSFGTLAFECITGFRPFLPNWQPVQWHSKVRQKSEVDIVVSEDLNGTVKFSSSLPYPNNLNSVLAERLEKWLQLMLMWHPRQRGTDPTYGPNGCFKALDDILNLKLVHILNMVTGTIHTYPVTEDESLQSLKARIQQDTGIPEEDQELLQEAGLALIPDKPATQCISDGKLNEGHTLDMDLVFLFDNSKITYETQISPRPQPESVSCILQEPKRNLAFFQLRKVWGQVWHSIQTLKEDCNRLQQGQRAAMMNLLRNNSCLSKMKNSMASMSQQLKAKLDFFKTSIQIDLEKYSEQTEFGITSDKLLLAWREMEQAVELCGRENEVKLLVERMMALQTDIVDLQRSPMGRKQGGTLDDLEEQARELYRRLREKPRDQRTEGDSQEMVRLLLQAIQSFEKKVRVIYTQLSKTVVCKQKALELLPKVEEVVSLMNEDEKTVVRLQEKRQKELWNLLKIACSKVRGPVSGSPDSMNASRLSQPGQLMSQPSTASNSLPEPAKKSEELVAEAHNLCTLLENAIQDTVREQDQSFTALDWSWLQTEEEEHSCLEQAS
T1 sequence (O15111 whole entry): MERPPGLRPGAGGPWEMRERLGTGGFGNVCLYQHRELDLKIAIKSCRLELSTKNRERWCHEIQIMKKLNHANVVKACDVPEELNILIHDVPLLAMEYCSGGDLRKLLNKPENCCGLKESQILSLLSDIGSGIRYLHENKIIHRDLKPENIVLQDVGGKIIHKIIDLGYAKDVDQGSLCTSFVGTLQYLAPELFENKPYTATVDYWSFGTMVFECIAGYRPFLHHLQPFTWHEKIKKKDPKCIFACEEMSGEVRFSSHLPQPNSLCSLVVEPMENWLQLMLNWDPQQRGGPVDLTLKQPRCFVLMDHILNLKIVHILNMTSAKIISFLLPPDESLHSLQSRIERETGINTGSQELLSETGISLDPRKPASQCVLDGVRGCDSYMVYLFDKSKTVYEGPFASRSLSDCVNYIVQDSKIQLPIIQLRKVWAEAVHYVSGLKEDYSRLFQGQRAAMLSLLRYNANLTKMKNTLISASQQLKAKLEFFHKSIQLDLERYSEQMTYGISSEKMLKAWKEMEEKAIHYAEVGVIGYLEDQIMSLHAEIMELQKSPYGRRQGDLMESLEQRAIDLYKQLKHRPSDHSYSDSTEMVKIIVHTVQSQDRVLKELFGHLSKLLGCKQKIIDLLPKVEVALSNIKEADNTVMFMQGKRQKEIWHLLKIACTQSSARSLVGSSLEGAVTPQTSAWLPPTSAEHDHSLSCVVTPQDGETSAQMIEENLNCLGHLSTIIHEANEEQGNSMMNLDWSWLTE
T1 sequence (Q9Y6K9 whole entry partner): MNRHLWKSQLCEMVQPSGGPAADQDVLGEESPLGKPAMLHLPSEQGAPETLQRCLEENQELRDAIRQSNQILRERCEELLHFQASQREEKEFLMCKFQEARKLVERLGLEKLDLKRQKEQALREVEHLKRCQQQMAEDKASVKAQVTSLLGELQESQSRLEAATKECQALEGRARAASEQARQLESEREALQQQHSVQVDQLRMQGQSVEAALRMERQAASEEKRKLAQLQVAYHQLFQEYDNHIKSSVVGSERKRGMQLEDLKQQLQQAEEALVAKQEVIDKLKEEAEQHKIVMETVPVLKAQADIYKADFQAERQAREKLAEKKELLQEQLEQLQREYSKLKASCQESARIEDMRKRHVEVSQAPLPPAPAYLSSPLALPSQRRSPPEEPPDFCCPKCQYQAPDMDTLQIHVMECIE

One test has as its target T1, IκBα-kinase complex (Homo sapiens, UniProt O14920+O15111).
T1 construct: endogenous in cells; host or cells: HeLa S3 cell extract, S100 fraction; ammonium sulfate precipitation and Superose-6 size exclusion
The test is described as follows: IkB-Kinase ELISA.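 Further: substrate phosphopeptide captured on Protein-A plates, detected with Streptavidin-HRP and TMB absorbance at 450 nm, activity read from a synthetic phosphopeptide standard curve.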 Particulars: IkB-kinase IC50. It counts as biochemical. A general note: An ELISA detects its analyte on a solid surface through an enzyme-linked reagent.
For the compound `CN(C)c1cc(Cl)cc2c1[nH]c1cnccc12` [Example 44, trifluoroacetate], the IC50 turned out to be 2 µM.

For the compound `Clc1cc2c([nH]c3cnccc32)c(Cl)c1OCC1CCCCC1` [Example 96], the IC50 was found to be 1.3 µM.

Staying with this test, now noted: activated IκBα kinase complex from HeLa S3 cell extracts; ELISA; read-out: IkB-kinase IC50.
Consider `Cc1nccc2c1[nH]c1cc(OCC(=O)OC(C)(C)C)ccc12` [Example 25], for which the IC50 is 31 µM.

Take `O=C(Nc1cc(Cl)cc2c1[nH]c1cnccc12)c1ccc(Cl)cc1` [Example 116]: the half-inhibitory concentration (IC50) is 1.8 µM.

`O=C1CC[C@H](C(=O)Nc2cc(Cl)cc3c2[nH]c2cnccc23)N1` [Example 99]: the IC50 was found to be 0.09 µM.

For `O=C(Nc1cc(Cl)cc2c1[nH]c1cnccc12)c1cccs1` [Example 76], the IC50 came out at 0.9 µM.

For `Nc1cc(Cl)cc2c1[nH]c1cnccc12` [Example 15], the IC50 was found to be 0.8 µM.

For `Clc1cc2c([nH]c3cnccc32)c(Cl)c1OCc1ccccc1` [Example 81], the IC50 came to 0.25 µM.

As to `NC(=O)Cn1c2ccc(Cl)cc2c2ccncc21` [Example 22], the IC50 amounted to 15 µM.

Take `Cc1nccc2c1[nH]c1ccc(Br)cc12` [Example 28]: the IC50 was 11 µM.

As to `Cn1c2ccc(Br)cc2c2ccncc21` [Example 11], the IC50 is 0.7 µM.

`COc1c(Cl)cc2c([nH]c3cnccc32)c1N` [Example 67]: the IC50 came to 0.5 µM.

Consider `Clc1cc2c([nH]c3cnccc32)c(Cl)c1OC1CCCC1` [Example 92], for which the IC50 worked out at 0.4 µM.

Regarding `CC(C)CC(=O)Nc1cc(Cl)cc2c1[nH]c1cnccc12` [Example 55, trifluoroacetate], the IC50 amounted to 0.8 µM.

Take `N#Cc1ccc(C(=O)Nc2cc(Cl)cc3c2[nH]c2cnccc23)cc1` [Example 73]: the IC50 turned out to be 0.4 µM.

On to `CC(C)(C)C(=O)Oc1c(Cl)cc2c([nH]c3cnccc32)c1Cl` [Example 58], for which the IC50 was 0.33 µM.

Turning to `CC(=O)Oc1ccc2c(c1)[nH]c1c(C)nccc12` [Example 29], the IC50 amounted to 40 µM.

As for `Clc1cc(Cl)c2[nH]c3cnccc3c2c1` [Example 9], the IC50 was 0.2 µM.

Consider `COc1cc2[nH]c3cnccc3c2cc1Cl` [Example 66], for which the IC50 was 0.7 µM.

As to `O=C(Nc1cc(Cl)cc2c1[nH]c1cnccc12)C1CCCC1` [Example 117], the IC50 is 0.67 µM.

As to `CS(=O)(=O)Nc1cc(Cl)cc2c1[nH]c1cnccc12` [Example 45, trifluoroacetate], the IC50 was 8.3 µM.

`COc1ccc(C(=O)Nc2cc(Cl)cc3c2[nH]c2cnccc23)cc1OC` [Example 71]: the IC50 came to 3 µM.

For `COc1c(Cl)cc2c([nH]c3cnccc32)c1NC(=O)c1ccc(F)cc1` [Example 114], the IC50 was 2.1 µM.

Regarding `O=C(Nc1cc(Cl)cc2c1[nH]c1cnccc12)c1ccno1` [Example 79], the IC50 is 0.18 µM.

Consider `O=C(Cc1cccnc1)Nc1cc(Cl)cc2c1[nH]c1cnccc12` [Example 97], for which the half-maximal inhibitory concentration (IC50) is 0.69 µM.

In the case of `O=C(Oc1c(Cl)cc2c([nH]c3cnccc32)c1Cl)N1CCOCC1` [Example 59], the IC50 came to 3.2 µM.

For `COc1cccc(C(=O)Nc2cc(Cl)cc3c2[nH]c2cnccc23)c1` [Example 52, 7-chloro-9-(3-methoxybenzoxylamino)-β-carboline trifluoroacetate], the IC50 turned out to be 0.6 µM.

For `COc1c(Cl)cc2c([nH]c3cnccc32)c1NC(=O)c1ccc(F)c(F)c1` [Example 120], the IC50 came to 0.4 µM.

Turning to `COc1c(Cl)cc2c([nH]c3cnccc32)c1NC(=O)c1cccnc1` [Example 68, N-(6-Chloro-7-methoxy-9H-β-carbolin-8-yl)-nicotinamide], the concentration for half-maximal inhibition (IC50) worked out at 0.16 µM.

On to `O=C1COc2c(Cl)cc3c([nH]c4cnccc43)c2N1` [Example 91], for which the IC50 is 2.3 µM.

For the compound `O=C(Nc1cc(Cl)cc2c1[nH]c1cnccc12)c1ccc(Br)cc1` [Example 113], the IC50 was determined as 0.64 µM.

`COc1cc2[nH]c3cnccc3c2cc1[N+](=O)[O-]` [Example 63]: the IC50 amounted to 1.3 µM.

With `O=C(COc1ccccc1)Nc1cc(Cl)cc2c1[nH]c1cnccc12` [Example 100], the 50% inhibitory concentration (IC50) was determined as 1.5 µM.
